# Patent US9457033B2, “Steroid alkaloids and uses thereof as antimicrobial agents against electron transport-deficient microbes and as potentiators for antimicrobial agents against pathogenic bacteria” (priority 2011, dated 2016)
# Read-outs that look alike come from different tables or passages of the source.
# Experiments:
# S. aureus ATCC 29213 [1] = test: MIC, microdilution in CAMHB 24 h, with or without tomatidine/compound; assay type: cell-based, Staphylococcus aureus; settings: for MIC: Staphylococcus aureus
# S. aureus ATCC 29213 [2] = test: Checkerboard assay, aminoglycoside and tomatidine; assay type: cell-based, Staphylococcus aureus; settings: for MIC: Staphylococcus aureus, ATCC29213, checkerboard
# Procedure: This checkerboard protocol (Eliopoulos and Moellering, 1996) was conducted by a microdilution method similar to that use for standard MICs determination. In 96 wells plates, antibiotics were loaded at a 4× concentration (where X is the maximal tested concentration) in well A1 and at a 2× concentration in the others wells of the column 1. Antibiotics were serially diluted 1:1 from the column 2 to column 10. […] Wells A12, B12, […] are positive untreated controls whereas wells […] are negative non-inoculated controls. […] The FIC index was calculated as follow (Eliopoulos and Moellering, 1996): FIC […]/MICB, where A and B are MICs of compounds A and B in combination and where MICA and MICB are the MICs of compound A alone and of compound B alone, respectively, and FICA and FICB are the FICs of compound A and of compound B, respectively.
# S. aureus 8325-4 = test: MIC, microdilution in CAMHB 24 h; assay type: cell-based, Staphylococcus aureus; settings: 8325-4; for MIC: Staphylococcus aureus, 83254
# S. aureus Newbould = test: MIC, microdilution in CAMHB 24 h; assay type: cell-based, Staphylococcus aureus; settings: Newbould; for MIC: Staphylococcus aureus
# S. aureus SHY97-3906 = test: MIC, microdilution in CAMHB 24 h; assay type: cell-based, Staphylococcus aureus; settings: for MIC: Staphylococcus aureus, SHY973906
# S. aureus ATCC 43300 = test: MIC, microdilution in CAMHB 24 h; assay type: cell-based, Staphylococcus aureus; settings: ATCC 43300; for MIC: Staphylococcus aureus
# S. aureus ATCC BAA-41 = test: MIC, microdilution in CAMHB 24 h; assay type: cell-based, Staphylococcus aureus; settings: for MIC: Staphylococcus aureus
# S. aureus MA078038 = test: MIC, microdilution in CAMHB 24 h; assay type: cell-based, Staphylococcus aureus; settings: for MIC: Staphylococcus aureus
# S. aureus Newman = test: MIC, microdilution in CAMHB 24 h; assay type: cell-based, Staphylococcus aureus; settings: Newman; for MIC: Staphylococcus aureus
# S. aureus Sa228c = test: MIC, microdilution in CAMHB 24 h; assay type: cell-based, Staphylococcus aureus; settings: for MIC: Staphylococcus aureus, SA228C
# S. aureus CF1A-L = test: MIC, microdilution in CAMHB 24 h; assay type: cell-based, Staphylococcus aureus; settings: CF1A-L; for MIC: Staphylococcus aureus, CF1AL
# S. aureus CF2A-L = test: MIC, microdilution in CAMHB 24 h; assay type: cell-based; settings: CF2A-L; for MIC: Staphylococcus aureus, CF2AL
# S. aureus CF4B-L = test: MIC, microdilution in CAMHB 24 h; assay type: cell-based, Staphylococcus aureus; settings: CF4B-L; for MIC: Staphylococcus aureus, CF4BL
# S. aureus CF6B-L = test: MIC, microdilution in CAMHB 24 h; assay type: cell-based, Staphylococcus aureus; settings: CF6B-L; for MIC: Staphylococcus aureus, CF6BL
# S. aureus CF7A-L = test: MIC, microdilution in CAMHB 24 h; assay type: cell-based, Staphylococcus aureus; settings: CF7A-L; for MIC: Staphylococcus aureus
# S. aureus CF8E-L = test: MIC, microdilution in CAMHB 24 h; assay type: cell-based, Staphylococcus aureus; settings: CF8E-L; for MIC: Staphylococcus aureus, CF8EL
# S. aureus CF35A-L = test: MIC, microdilution in CAMHB 24 h; assay type: cell-based, Staphylococcus aureus; settings: CF35A-L; for MIC: Staphylococcus aureus
# S. aureus CF07-L = test: MIC, microdilution in CAMHB 24 h; assay type: cell-based, Staphylococcus aureus; settings: CF07-L; for MIC: Staphylococcus aureus, CF07L
# S. aureus ATCC 29213 [3] = test: Time-kill experiments, aminoglycoside alone or with tomatidine (FIGS. 8-10); settings: alone at ≧1×MIC (1 μg/ml); regrowth observed within 24 h; FIG. 9
# [4] = 8 μg/ml of tomatidine, read-out: MIC +TO
# [5] = absence of tomatidine, read-out: MIC −TO
# [6] = Human (CF lungs), read-out: MIC
# [7] = Human (CF lungs), MRSA, read-out: MIC
smiles,measurement,setting,value
"NC[C@H]1O[C@H](O[C@H]2[C@H](O)[C@@H](O[C@H]3O[C@H](CO)[C@@H](O)[C@H](N)[C@H]3O)[C@H](N)C[C@@H]2N)[C@H](N)C[C@@H]1O [Tobramycin, tobramycin]",Fold (−TO/+TO),"S. aureus ATCC 29213 [1]; ATCC 29123, 8 μg/ml of tomatidine",4-16 fold
same,Fold (−TO/+TO),"S. aureus ATCC 29213 [1]; ATCC 29213, tomatidine at 8 μg/ml",4-8 fold
same,MIC,"S. aureus ATCC 29213 [1]; ATCC 29123 / ATCC 29213, ATCC 29123, 8 μg/ml of tomatidine, read-out: MIC +TO",0.03 to 0.06 µg/mL
same,MIC,"S. aureus ATCC 29213 [1]; ATCC 29123 / ATCC 29213, ATCC 29123, absence of tomatidine, read-out: MIC −TO",0.25 to 0.5 µg/mL
same,MIC,"S. aureus ATCC 29213 [1]; ATCC29213, ATCC 29213, Human (SSTI), read-out: MIC",0.25 to 0.5 µg/mL
same,MIC,"S. aureus ATCC 29213 [1]; ATCC29213, ATCC 29213, absence of tomatidine, read-out: MIC −TO",0.25 to 0.5 µg/mL
same,MIC,"S. aureus ATCC 29213 [1]; ATCC29213, ATCC 29213, presence of tomatidine at 8 μg/ml, read-out: MIC +TO",0.06 µg/mL
same,MIC,S. aureus ATCC 29213 [2]; tomatidine 0 μg/ml,0.25 to 0.5 µg/mL
same,MIC,S. aureus ATCC 29213 [2]; tomatidine 0.06 μg/ml,0.25 µg/mL
same,MIC,S. aureus ATCC 29213 [2]; tomatidine 0.12 μg/ml,0.03 to 0.12 µg/mL
same,MIC,S. aureus ATCC 29213 [2]; tomatidine 0.25 μg/ml,0.03 to 0.06 µg/mL
same,MIC,S. aureus ATCC 29213 [2]; tomatidine 0.5 μg/ml,0.03 µg/mL
same,MIC,S. aureus ATCC 29213 [2]; tomatidine 1 μg/ml,0.03 to 0.06 µg/mL
same,MIC,S. aureus ATCC 29213 [2]; tomatidine 2 μg/ml,0.03 to 0.06 µg/mL
same,MIC,S. aureus ATCC 29213 [2]; tomatidine 4 μg/ml,0.03 to 0.06 µg/mL
same,MIC,S. aureus ATCC 29213 [2]; tomatidine 8 μg/ml,0.06 µg/mL
same,FIC index,"S. aureus ATCC 29213 [2]; aminoglycoside with tomatidine, tomatidine MIC considered 32 μg/ml, values overestimated",≦0.133
same,Fold (−TO/+TO),S. aureus 8325-4; 8 μg/ml of tomatidine,4 fold
same,MIC,S. aureus 8325-4; [4],0.03 to 0.06 µg/mL
same,MIC,"S. aureus 8325-4; Laboratory strain, read-out: MIC",0.12 to 0.25 µg/mL
same,MIC,S. aureus 8325-4; [5],0.12 to 0.25 µg/mL
same,Fold (−TO/+TO),S. aureus Newbould; 8 μg/ml of tomatidine,8 fold
same,MIC,S. aureus Newbould; [4],0.06 to 0.12 µg/mL
same,MIC,"S. aureus Newbould; Cow (mastitis), read-out: MIC",0.5 to 1 µg/mL
same,MIC,S. aureus Newbould; [5],0.5 to 1 µg/mL
same,Fold (−TO/+TO),"S. aureus SHY97-3906; SHY-3906, 8 μg/ml of tomatidine",8 fold
same,MIC,"S. aureus SHY97-3906; SHY97-3906, Cow (mastitis), read-out: MIC",0.25 µg/mL
same,MIC,"S. aureus SHY97-3906; SHY-3906, 8 μg/ml of tomatidine, read-out: MIC +TO",0.03 µg/mL
same,MIC,"S. aureus SHY97-3906; SHY-3906, absence of tomatidine, read-out: MIC −TO",0.25 µg/mL
same,Fold (−TO/+TO),S. aureus ATCC 43300; 8 μg/ml of tomatidine,4-8 fold
same,MIC,"S. aureus ATCC 43300; ATCC 43300 / MRSA, Human (HA), MRSA, read-out: MIC",512 to 1020 µg/mL
same,MIC,"S. aureus ATCC 43300; ATCC43300, 8 μg/ml of tomatidine, read-out: MIC +TO",128 µg/mL
same,MIC,"S. aureus ATCC 43300; ATCC43300, absence of tomatidine, read-out: MIC −TO",512 to 1020 µg/mL
same,Fold (−TO/+TO),"S. aureus ATCC BAA-41; ATCC BAA-41, 8 μg/ml of tomatidine",4 fold
same,MIC,"S. aureus ATCC BAA-41; ATCC BAA-41 / MRSA, ATCC BAA-41, Human (HA), MRSA, read-out: MIC",512 µg/mL
same,MIC,"S. aureus ATCC BAA-41; ATCCBAA41, ATCC BAA-41, ant(4′)-Ia, 8 μg/ml of tomatidine, read-out: MIC +TO",128 µg/mL
same,MIC,"S. aureus ATCC BAA-41; ATCCBAA41, ATCC BAA-41, ant(4′)-Ia, absence of tomatidine, read-out: MIC −TO",512 µg/mL
same,Fold (−TO/+TO),"S. aureus MA078038; MA078038, 8 μg/ml of tomatidine",4-8 fold
same,MIC,"S. aureus MA078038; MA078038, aph(3′)-IIIa, 8 μg/ml of tomatidine, read-out: MIC +TO",0.06 to 0.12 µg/mL
same,MIC,"S. aureus MA078038; MA078038, aph(3′)-IIIa, absence of tomatidine, read-out: MIC −TO",0.5 µg/mL
same,MIC,"S. aureus MA078038; MA078038, Human (CA), MRSA, read-out: MIC",0.5 µg/mL
same,Fold (−TO/+TO),S. aureus Newman; 8 μg/ml of tomatidine,2-8 fold
same,MIC,S. aureus Newman; [4],0.06 to 0.12 µg/mL
same,MIC,"S. aureus Newman; Human (Osteo), read-out: MIC",0.25 to 0.5 µg/mL
same,MIC,S. aureus Newman; [5],0.25 to 0.5 µg/mL
same,Fold (−TO/+TO),"S. aureus Sa228c; Sa228c, 8 μg/ml of tomatidine",4-8 fold
same,MIC,S. aureus Sa228c; read-out: MIC +TO,128 to 256 µg/mL
same,MIC,S. aureus Sa228c; read-out: MIC −TO,1020 µg/mL
same,Fold (−TO/+TO),S. aureus CF1A-L; 8 μg/ml of tomatidine,4-16 fold
same,MIC,S. aureus CF1A-L; [4],0.06 to 0.25 µg/mL
same,MIC,S. aureus CF1A-L; [6],1 µg/mL
same,MIC,S. aureus CF1A-L; [5],1 µg/mL
same,Fold (−TO/+TO),S. aureus CF2A-L; 8 μg/ml of tomatidine,8-16 fold
same,MIC,S. aureus CF2A-L; [4],0.06 to 0.12 µg/mL
same,MIC,S. aureus CF2A-L; [6],1 µg/mL
same,MIC,S. aureus CF2A-L; [5],1 µg/mL
same,Fold (−TO/+TO),S. aureus CF4B-L; 8 μg/ml of tomatidine,4-16 fold
same,MIC,S. aureus CF4B-L; [4],0.06 to 0.12 µg/mL
same,MIC,S. aureus CF4B-L; [6],0.5 to 1 µg/mL
same,MIC,S. aureus CF4B-L; [5],0.5 to 1 µg/mL
same,Fold (−TO/+TO),S. aureus CF6B-L; 8 μg/ml of tomatidine,4-16 fold
same,MIC,"S. aureus CF6B-L; aac(6′)-aph(2″), 8 μg/ml of tomatidine, read-out: MIC +TO",16 to 64 µg/mL
same,MIC,"S. aureus CF6B-L; aac(6′)-aph(2″), absence of tomatidine, read-out: MIC −TO",256 µg/mL
same,MIC,S. aureus CF6B-L; [6],256 µg/mL
same,Fold (−TO/+TO),S. aureus CF7A-L; 8 μg/ml of tomatidine,2-8 fold
same,MIC,"S. aureus CF7A-L; CF7AL, ant(4′)-Ia, 8 μg/ml of tomatidine, read-out: MIC +TO",128 to 512 µg/mL
same,MIC,"S. aureus CF7A-L; CF7AL, ant(4′)-Ia, absence of tomatidine, read-out: MIC −TO",1020 µg/mL
same,MIC,S. aureus CF7A-L; [7],1020 µg/mL
same,Fold (−TO/+TO),S. aureus CF8E-L; 8 μg/ml of tomatidine,4 fold
same,MIC,S. aureus CF8E-L; [4],0.25 µg/mL
same,MIC,S. aureus CF8E-L; [6],1 µg/mL
same,MIC,S. aureus CF8E-L; [5],1 µg/mL
same,Fold (−TO/+TO),S. aureus CF35A-L; 8 μg/ml of tomatidine,8-16 fold
same,MIC,"S. aureus CF35A-L; CF35AL, 8 μg/ml of tomatidine, read-out: MIC +TO",0.06 µg/mL
same,MIC,"S. aureus CF35A-L; CF35AL, absence of tomatidine, read-out: MIC −TO",0.5 to 1 µg/mL
same,MIC,S. aureus CF35A-L; [7],0.5 to 1 µg/mL
same,Fold (−TO/+TO),S. aureus CF07-L; 8 μg/ml of tomatidine,4-8 fold
same,MIC,S. aureus CF07-L; [4],0.06 to 0.12 µg/mL
same,MIC,S. aureus CF07-L; [6],0.5 to 1 µg/mL
same,MIC,S. aureus CF07-L; [5],0.5 to 1 µg/mL
same,time-kill activity alone,S. aureus ATCC 29213 [3],bactericidal
